In patent US7582638B2, “Pyrazole-isoquinoline urea derivatives as p38 kinase inhibitors” (Eli Lilly and Company, priority 2005, dated 2009):
pIC50: −log10 of the molar value. Where a name gives a salt, the structure may show the parent alone.

System: pMAPKAPK2
Assay: Inhibition of p-MAPKAPK2 in vitro (anisomycin-stimulated RAW 264.7 cells, ELISA)
Assay type: cell-based, murine
Conditions: Mus musculus, RAW264.7, p-MAPKAPK2 in vitro, read-out: IC50
Method: RAW 264.7 cells (a murine monocytic/macrophage line ATCC) are seeded at a density of 50,000 cells/well in 96-well plates with RPMI-1640 medium plus 10% fetal bovine serum (FBS) and allowed to settle and adhere to the bottom of the well for 48 hours. After reaching confluence, cells are treated for 2 hours with 10 serial dilutions of different compounds. A control compound is always included. After 2 hours, anisomicin (100 ug/ml) is added and cells are incubated for 30 minutes at 37° C. under a 5% CO2 atmosphere. Then, cells are fixed and treated with hydrogen peroxide in order to remove endogenous peroxidase. Finally, plates are blocked with FBS, washed, and an ELISA assay is carried out by using an antiphospho-MAPKAPK2 (Thr 334, Cell Signalling, Cat # 3041) antibody and ahP-Conjugated Secondary Antibody. This reaction is detected by using FEMTO (Pierce) which is an enhanced chemiluminiscent substrate ahP that results in rapid kinetic light output and high signal intensity. The compound exemplified in Example 12 is tested essentially as described above and is found to inhibit the pMAPKAPK2 enzyme production with an IC50 of 7 nM.

SMILES: Cc1ccc(-n2nc(C3(C)CC3)cc2NC(=O)Nc2cnc(N3CCN(C(=O)C4CC4)CC3)c3ccccc23)cc1 [Example 1, 1-[1-(4-Cyclopropanecarbonyl-piperazin-1-yl)-isoquinolin-4-yl]-3-[5-(1-methyl-cyclopropyl)-2-p-tolyl-2H-pyrazol-3-yl]-urea]
- pIC50: 7.36

SMILES: Cc1ccc(-n2nc(C3(C)CC3)cc2NC(=O)Nc2cnc(N3CCN(C(=O)c4c(F)cccc4F)CC3)c3ccccc23)cc1 [Example 3, 1-{1-[4-(2,6-Difluoro-benzoyl)-piperazin-1-yl]-isoquinolin-4-yl}-3-[5-(1-methyl-cyclopropyl)-2-p-tolyl-2H-pyrazol-3-yl]-urea]
- pIC50: 7.60

SMILES: COC1(c2cc(NC(=O)Nc3cnc(OC4CCN(C(=O)C5(C)CC5)CC4)c4ccccc34)n(-c3ccc(C)cc3)n2)CC1 [Example 9, 1-[5-(1-Methoxy-cyclopropyl)-2-p-tolyl-2H-pyrazol-3-yl]-3-{1-[1-(1-methyl-cyclopropanecarbonyl)-piperidin-4-yloxy]-isoquinolin-4-yl}-urea mesylate]
- pIC50: 7.00

SMILES: Cc1ccc(-n2nc(C(C)(C)C)cc2NC(=O)Nc2cnc(OC3CCN(C(N)=O)CC3)c3ccccc23)cc1 [Example 23]
- pIC50: 6.90
